{
  "source": "paper PMC4806491",
  "about": "“The milk-derived fusion peptide, ACFP, suppresses the growth of primary human ovarian cancer cells by regulating apoptotic gene expression and signaling pathways” (BMC Cancer, 2016)",
  "system": "primary ovarian cancer cells",
  "conditions": "Low dose 5×10^-6 g/L, 48 h",
  "note": "Read-outs that look alike come from different tables or passages of the source. Positions of bridges follow the written chain, without caps; N, C: chain ends. Residues, ends and D or L forms follow the SMILES beside them.",
  "procedure": "We utilized cDNA microarrays to observe the effect of ACFP on gene expression in primary ovarian cancer cells. Cells were treated with 0 (the vehicle group, as control), 5 × 10^6 g/L and 5 × 10^3 g/L ACFP, respectively, and cultured for 48 h at 37 °C in 5 % CO2. Cells were later digested and collected for total RNA extraction using Trizol. The RNA concentrations and purities were detected with a spectrophotometer. The experiments were performed in duplicate on a single total RNA preparation from the cells. Signal values were presented as the mean value of two replicate experiments. RNA samples were used to generate human whole genome expression profiling microarray (Yeli Bioscience Co., Ltd.; Shanghai, China). RNA was subsequently converted into digoxigenin-labeled complementary RNA and hybridized to a human genome microarray system (Human OneArray Microarray, from Phalanx Biotech Group, Taiwan). The chips were scanned by a GeeDom® LuxScan 10 K microarray scanner. LuxScan3.0 software was used to extract probe fluorescence signals and analyze images. Finally, the original data were processed by normalizing.",
  "data": [
    {"smiles": "CC[C@H](C)[C@@H]1NC(=O)[C@H](CO)NC(=O)[C@@H]2CCCN2C(=O)[C@H](C)NC(=O)CNC(=O)[C@H](CC(C)C)NC(=O)[C@H](CCCCN)NC(=O)[C@H](CCCCN)NC(=O)[C@H](CCSC)NC(=O)[C@H](CCCNC(=N)N)NC(=O)[C@H](Cc2c[nH]c3ccccc23)NC(=O)[C@H](CCC(N)=O)NC(=O)[C@H](Cc2c[nH]c3ccccc23)NC(=O)[C@H](CCCNC(=N)N)NC(=O)[C@H](CCCNC(=N)N)NC(=O)[C@@H](NC(=O)[C@H](CCCCN)NC(=O)[C@@H](N)Cc2ccccc2)CSSC[C@@H](C(=O)N[C@H](C(=O)N[C@@H](CCCNC(=N)N)C(=O)N[C@@H](CCCNC(=N)N)C(=O)N[C@@H](C)C(=O)N[C@@H](Cc2ccccc2)C(=O)NCC(=O)NCC(=O)NCC(=O)NCC(=O)N[C@@H](CO)C(=O)N2CCC[C@H]2C(=O)NCC(=O)N2CCC[C@H]2C(=O)N[C@H](C(=O)N2CCC[C@H]2C(=O)N[C@@H](CC(N)=O)C(=O)O)[C@@H](C)CC)C(C)C)NC(=O)[C@H]([C@@H](C)O)NC1=O", "note": "[ACFP] (H-FKCRRWQWRMKKLGAPSITCVRRAFGGGGSPGPIPN-OH; disulfide 3-20; N-terminus and C-terminus assumed)", "values": [
      {"measurement": "GTF2IP1 Ratio (ACFP/control)", "setting": "NM-002970", "value": 0.47},
      {"measurement": "IGFBP5 Ratio (ACFP/control)", "setting": "NM-003488", "value": 0.45},
      {"measurement": "MYLK Ratio (ACFP/control)", "setting": "NM-004638", "value": 0.33},
      {"measurement": "NKX3-1 Ratio (ACFP/control)", "setting": "NM-004824", "value": 2.8},
      {"measurement": "PLA2G5 Ratio (ACFP/control)", "setting": "NM-005322", "value": 0.36},
      {"measurement": "POLH Ratio (ACFP/control)", "setting": "NM-005429", "value": 0.33},
      {"measurement": "PSMA1 Ratio (ACFP/control)", "setting": "NM-005682", "value": 0.39},
      {"measurement": "STAT5B Ratio (ACFP/control)", "setting": "NM-006777", "value": 3.24},
      {"measurement": "STAT6 Ratio (ACFP/control)", "setting": "NM-006778", "value": 2.06},
      {"measurement": "UPP1 Ratio (ACFP/control)", "setting": "NM-007378", "value": 0.48},
      {"measurement": "TNFSF18 Ratio (ACFP/control)", "setting": "NM-008995", "value": 0.49},
      {"measurement": "MAP4K4 Ratio (ACFP/control)", "setting": "NM-009448", "value": 0.36},
      {"measurement": "BTF/BCLAF1 Ratio (ACFP/control)", "setting": "NM-009774", "value": 3.25},
      {"measurement": "TMEFF1 Ratio (ACFP/control)", "setting": "NM-016522", "value": 3.33},
      {"measurement": "RAB18 Ratio (ACFP/control)", "setting": "NM-022931", "value": 0.30},
      {"measurement": "TCF/LEF1 Ratio (ACFP/control)", "setting": "NM-051176", "value": 0.36},
      {"measurement": "PINX1 Ratio (ACFP/control)", "setting": "NM-054984", "value": 0.45},
      {"measurement": "RINT-1 Ratio (ACFP/control)", "setting": "NM-060561", "value": 0.32},
      {"measurement": "C17orf37 Ratio (ACFP/control)", "setting": "NM-084299", "value": 0.39},
      {"measurement": "ZNF512 Ratio (ACFP/control)", "setting": "NM-084450", "value": 0.31},
      {"measurement": "AKT1 Ratio (ACFP/control)", "setting": "NM_000207", "value": 0.29},
      {"measurement": "ARHE Ratio (ACFP/control)", "setting": "NM_000390", "value": 2.99},
      {"measurement": "BAG1 Ratio (ACFP/control)", "setting": "NM_000573", "value": 0.48},
      {"measurement": "BAX Ratio (ACFP/control)", "setting": "NM_000581", "value": 3.73},
      {"measurement": "BCL-xl Ratio (ACFP/control)", "setting": "NM_000598", "value": 0.28},
      {"measurement": "C1QG Ratio (ACFP/control)", "setting": "NM_000714", "value": 2.02},
      {"measurement": "CASP3 Ratio (ACFP/control)", "setting": "NM_000836", "value": 3.72},
      {"measurement": "CCNB1 Ratio (ACFP/control)", "setting": "NM_000891, cyclinB1", "value": 0.30},
      {"measurement": "TNFRSF8 Ratio (ACFP/control)", "setting": "NM_000943, first entry", "value": 2.05},
      {"measurement": "TNFRSF8 Ratio (ACFP/control)", "setting": "NM_000943, second entry", "value": 2.02},
      {"measurement": "CDC25C Ratio (ACFP/control)", "setting": "NM_000995", "value": 0.29},
      {"measurement": "CDKN1A Ratio (ACFP/control)", "setting": "NM_001026", "value": 3.24},
      {"measurement": "CDKN1A/p21 Ratio (ACFP/control)", "setting": "NM_001026, second entry", "value": 3.24},
      {"measurement": "CKS2 Ratio (ACFP/control)", "setting": "NM_001164", "value": 3.67},
      {"measurement": "DVL1 Ratio (ACFP/control)", "setting": "NM_001855", "value": 3.58},
      {"measurement": "GRK4 Ratio (ACFP/control)", "setting": "NM_002868", "value": 0.42},
      {"measurement": "GRK5 Ratio (ACFP/control)", "setting": "NM_002869", "value": 0.47},
      {"measurement": "GRK6 Ratio (ACFP/control)", "setting": "NM_002870", "value": 0.49},
      {"measurement": "GSTM4 Ratio (ACFP/control)", "setting": "NM_002948", "value": 2.25},
      {"measurement": "GSTM5 Ratio (ACFP/control)", "setting": "NM_002949", "value": 3.55},
      {"measurement": "IRF7 Ratio (ACFP/control)", "setting": "NM_003665", "value": 3.13},
      {"measurement": "ITGA5 Ratio (ACFP/control)", "setting": "NM_003678", "value": 0.36},
      {"measurement": "PKIA Ratio (ACFP/control)", "setting": "NM_005569", "value": 2.52},
      {"measurement": "MAPK3/ERK1 Ratio (ACFP/control)", "setting": "NM_005595", "value": 0.36},
      {"measurement": "MAPK8/JNK1 Ratio (ACFP/control)", "setting": "NM_005599", "value": 2.04},
      {"measurement": "MAPK13/p38 delta Ratio (ACFP/control)", "setting": "NM_005603", "value": 2.91},
      {"measurement": "PSMB8 Ratio (ACFP/control)", "setting": "NM_005696", "value": 2.97},
      {"measurement": "TNFRSF1A Ratio (ACFP/control)", "setting": "NM_007132, first entry", "value": 3.50},
      {"measurement": "TNFRSF1A Ratio (ACFP/control)", "setting": "NM_007132, second entry", "value": 3.50},
      {"measurement": "ZNF12 Ratio (ACFP/control)", "setting": "NM_007559", "value": 2.07},
      {"measurement": "BAT5 Ratio (ACFP/control)", "setting": "NM_007920", "value": 3.66},
      {"measurement": "PABPN1 Ratio (ACFP/control)", "setting": "NM_008106", "value": 3.71},
      {"measurement": "TNFRSF10B Ratio (ACFP/control)", "setting": "NM_008795", "value": 2.43},
      {"measurement": "STK17B Ratio (ACFP/control)", "setting": "NM_009262", "value": 2.01},
      {"measurement": "TRAF4 Ratio (ACFP/control)", "setting": "NM_009618", "value": 3.34},
      {"measurement": "USP34 Ratio (ACFP/control)", "setting": "NM_009736", "value": 3.49},
      {"measurement": "GOLGA5 Ratio (ACFP/control)", "setting": "NM_009950", "value": 2.46},
      {"measurement": "SUI1 Ratio (ACFP/control)", "setting": "NM_010209", "value": 2.89},
      {"measurement": "SPINT2 Ratio (ACFP/control)", "setting": "NM_010653", "value": 3.58},
      {"measurement": "PIK3R5 Ratio (ACFP/control)", "setting": "NM_023533", "value": 0.39},
      {"measurement": "CARD10 Ratio (ACFP/control)", "setting": "NM_029775", "value": 2.43},
      {"measurement": "FLJ39616 Ratio (ACFP/control)", "setting": "NM_051275", "value": 3.34},
      {"measurement": "GNG12 Ratio (ACFP/control)", "setting": "NM_055970", "value": 3.49},
      {"measurement": "BCORL1 Ratio (ACFP/control)", "setting": "NM_063035", "value": 0.35},
      {"measurement": "CARD14 Ratio (ACFP/control)", "setting": "NM_079092", "value": 2.13},
      {"measurement": "BCL2L14 Ratio (ACFP/control)", "setting": "NM_079370", "value": 2.44},
      {"measurement": "FLJ13848 Ratio (ACFP/control)", "setting": "NM_079829", "value": 3.28},
      {"measurement": "SNARK Ratio (ACFP/control)", "setting": "NM_081788", "value": 3.08},
      {"measurement": "C1QTNF6 Ratio (ACFP/control)", "setting": "NM_114904, first entry", "value": 3.57},
      {"measurement": "C1QTNF6 Ratio (ACFP/control)", "setting": "NM_114904, second entry", "value": 3.43},
      {"measurement": "LOC441241 Ratio (ACFP/control)", "setting": "NM_441241", "value": 3.48}
    ]}
  ]
}
